Measurements reported in US20250339399A1, “SUPRAMOLECULAR SELF-ASSEMBLY SYSTEM” (Beijing Creatron Institute of Pharmaceutical Research Co., …, priority 2022, published 2025).
Blank lines part the entries; values can stand above or below the molecule they belong to.

Key:
Type in all cases: physicochemical
[1] = Binary (carrier), ternary and quaternary supramolecular self-assembly systems of polymer, carrier building block and target: guest concentration over incubation time (Examples 1-56); conditions: for Concentration of guest molecule in solution / Times that of the initial medium: 6 h
Protocol: (§1) pH 2.0 hydrochloric acid, pH 4.5 acetate, and pH 6.5, pH 6.8, or pH 7.4 phosphate buffer solutions were prepared. The selection of each initial medium followed the principle that the solubility in the initial medium of the selected targets (or active ingredients) should low enough, but should meet the detection sensitivity and accuracy requirements of the corresponding analytical methods. Each buffer as initial media was placed in a 50 ml test tube with a stopper, shaken in a constant temperature air shaker at 37° C.±0.5° C., with an amplitude of 200 rpm, and incubated for 1 hour. […] Samples were taken at 0.5 h, 3 h and 6 h after incubation, centrifuged at 37° C., 13000 rpm for 5 minutes, and the supernatant was diluted at least 10 times with the mobile phase under the target analyte analytical method, filtered, the initial filtrate was discarded, and the continued filtrate was used as the test solution for injection analysis. The corresponding HPLC method under each target object item in Table 8 was used to determine the content of each target substance. When the solubility of the target in the initial medium is below the quantitative limit of the analytical method, a small amount of surfactant, such as sodium dodecyl sulfate (SDS), Tween20, or Tween80, can be added appropriately.
Experiments were conducted according to the steps in Comparative Example 1, and quantitative analysis was carried out using the analytical method for each target to investigate the regulation ability of each binary supramolecular self-assembly system built from 0.5% polymer and target on guest molecules stacking.
Ternary supramolecular self-assembly systems based on different polymers, carrier building blocks, and targets were built according to the experimental scheme in Table 12, to investigate the influence of synergistic regulation of the carrier building blocks and the polymers on the stacking of target molecules, as well as the stability of the supramolecular self-assembly systems jointly built by them over incubation time. The initial medium, quantitative analysis method, pre-treatment method, and initial theoretical concentration of the target, corresponding to each target molecule in the experiment, were consistent with those in Comparative Examples 1 and 2. After a target was added to the system, the target was uniformly dispersed by ultrasonication at 37° C. for half an hour and then shaken in a 37° C. constant temperature air shaker, and samples were collected after different incubation time, i.e. 0.5 h, 1 h, 2 h, 3 h, 4 h, and 6 h.

[2] = Binary supramolecular self-assembly systems of polymer and target: guest concentration over incubation time (Comparative Example 2); conditions: for Concentration of guest molecule in solution / Times that of the initial medium: 6 h
Protocol: Experiments were conducted according to the steps in Comparative Example 1, and quantitative analysis was carried out using the analytical method for each target to investigate the regulation ability […] stacking.

[3] = Guest molecule concentration after incubation in initial medium without polymer (Comparative Example 1); conditions: for Concentration of guest molecule measured after different incubated time: 37° C.; for Concentration of guest molecule in solution: initial medium
Protocol: as §1
The above targets were incubated at 37° C.±0.5° C. for different time in an initial medium without any polymer. Each solid target formed by molecular stacking was removed by centrifugation, and the supernatant was analyzed using the HPLC method under each target item (see Table 8). The theoretical addition concentration of each target when its supramolecular self-assembly system was built was determined by its maximum dose in clinical use.

[4] = ternary: 0.25% 102M + 0.25% 301
[5] = ternary: 0.25% 102M + 0.25% 302
[6] = binary system with 0.5% polymer 102, incubation 0.5 h
[7] = binary system with 0.5% polymer 102, incubation 3 h
[8] = binary system with 0.5% polymer 102, incubation 6 h

Concentration of guest molecule in solution [1, 4]: 290800 ng/mL | Times that of the initial medium [1, 4]: 26 times | Concentration of guest molecule in solution [1, 5]: 107200 ng/mL | Times that of the initial medium [1, 5]: 9.7 times | Concentration of guest molecule in solution ([1]; ternary: 0.25% 102M + 0.5% 301): 394000 ng/mL | Times that of the initial medium ([1]; ternary: 0.25% 102M + 0.5% 301): 35 times | Times that of the initial medium ([1]; ternary: 102M + 310, 312 or 313): 29 times | Concentration of guest molecule in solution ([1]; ternary: 102M + 318): 253700 ng/mL | Concentration of the target in the solution measured after different incubation time ([2]; binary system with 0.5% polymer 101, incubation 0.5 h): 132500 ng/mL | Concentration of the target in the solution measured after different incubation time ([2]; binary system with 0.5% polymer 101, incubation 3 h): 47200 ng/mL | Concentration of the target in the solution measured after different incubation time ([2]; binary system with 0.5% polymer 101, incubation 6 h): 46600 ng/mL | Concentration of the target in the solution measured after different incubation time [2, 6]: 169800 ng/mL | Concentration of the target in the solution measured after different incubation time [2, 7]: 166000 ng/mL | Concentration of the target in the solution measured after different incubation time [2, 8]: 161400 ng/mL | Concentration of the target in the solution measured after different incubation time ([2]; binary system with 0.5% polymer 103, incubation 0.5 h): 19200 ng/mL | Concentration of the target in the solution measured after different incubation time ([2]; binary system with 0.5% polymer 103, incubation 3 h): 20400 ng/mL | Concentration of the target in the solution measured after different incubation time ([2]; binary system with 0.5% polymer 103, incubation 6 h): 17500 ng/mL | Concentration of the target in the solution measured after different incubation time ([2]; binary system with 0.5% polymer 104, incubation 0.5 h): 11900 ng/mL | Concentration of the target in the solution measured after different incubation time ([2]; binary system with 0.5% polymer 104, incubation 3 h): 9400 ng/mL | Concentration of the target in the solution measured after different incubation time ([2]; binary system with 0.5% polymer 104, incubation 6 h): 9100 ng/mL | Concentration of the target in the solution measured after different incubation time ([2]; binary system with 0.5% polymer 106, incubation 0.5 h): 16800 ng/mL | Concentration of the target in the solution measured after different incubation time ([2]; binary system with 0.5% polymer 106, incubation 3 h): 17400 ng/mL | Concentration of the target in the solution measured after different incubation time ([2]; binary system with 0.5% polymer 106, incubation 6 h): 17300 ng/mL | Concentration of the target in the solution measured after different incubation time ([2]; binary system with 0.5% polymer 107, incubation 0.5 h): 48300 ng/mL | Concentration of the target in the solution measured after different incubation time ([2]; binary system with 0.5% polymer 107, incubation 3 h): 52100 ng/mL | Concentration of the target in the solution measured after different incubation time ([2]; binary system with 0.5% polymer 107, incubation 6 h): 45500 ng/mL | Concentration of the target in the solution measured after different incubation time ([2]; binary system with 0.5% polymer 110, incubation 0.5 h): 17000 ng/mL | Concentration of the target in the solution measured after different incubation time ([2]; binary system with 0.5% polymer 110, incubation 3 h): 19200 ng/mL | Concentration of the target in the solution measured after different incubation time ([2]; binary system with 0.5% polymer 110, incubation 6 h): 19100 ng/mL | Concentration of guest molecule in solution ([2]; binary: 0.25% 102H): 260200 ng/mL | Times that of the initial medium ([2]; binary: 0.25% 102H): approximately 14 times | Times that of the initial medium ([2]; binary: 0.25% 102M): about 6 times | Concentration of guest molecule measured after different incubated time ([3]; 0.5 h, 0.05% SDS in pH 6.8 phosphate buffer): 11700 ng/mL | Concentration of guest molecule measured after different incubated time ([3]; 3 h, 0.05% SDS in pH 6.8 phosphate buffer): 11900 ng/mL | Concentration of guest molecule measured after different incubated time ([3]; 6 h, 0.05% SDS in pH 6.8 phosphate buffer): 7800 ng/mL | Concentration of guest molecule in solution ([3]; 6 h): 18400 ng/mL
SMILES: CCCSc1nc(N[C@@H]2C[C@H]2c2ccc(F)c(F)c2)c2nnn([C@@H]3C[C@H](OCCO)[C@@H](O)[C@H]3O)c2n1 [Ticagrelor]

Times that of the initial medium ([1]; quaternary: 0.25% 204 (102M+103E3) + 0.25% 302, 310, 314 or 318, range over the systems): 13-17 times | Concentration of guest molecule in solution ([2]; binary: 0.5% 103E3): 64370 ng/mL | Concentration of guest molecule measured after different incubated time ([3]; 0.5 h, pH 4.5 acetate buffer): 48900 ng/mL | Concentration of guest molecule measured after different incubated time ([3]; 3 h, pH 4.5 acetate buffer): 39600 ng/mL | Concentration of guest molecule measured after different incubated time ([3]; 6 h, pH 4.5 acetate buffer): 52000 ng/mL | Concentration of guest molecule in solution ([3]; 6 h): 51970 ng/mL
SMILES: COC(=O)[C@H](c1ccccc1Cl)N1CCc2sccc2C1 [Clopidogrel bisulfate]

SMILES: CC1=C[C@H](O)CC(C)(C)[C@H]1/C=C/C(C)=C/C=C/C(C)=C/C=C/C=C(C)/C=C/C=C(C)/C=C/C1=C(C)C[C@@H](O)CC1(C)C [Lutein, lutein]
Concentration of the target in the solution measured after different incubation time [2, 6]: 16300 ng/mL | Concentration of the target in the solution measured after different incubation time [2, 7]: 16900 ng/mL | Concentration of the target in the solution measured after different incubation time [2, 8]: 16000 ng/mL | Concentration of guest molecule measured after different incubated time ([3]; 0.5 h, pH 6.8 phosphate buffer): 0 ng/mL | Concentration of guest molecule measured after different incubated time ([3]; 3 h, pH 6.8 phosphate buffer): 0 ng/mL | Concentration of guest molecule measured after different incubated time ([3]; 6 h, pH 6.8 phosphate buffer): 0 ng/mL

Encapsulation rate for the guest molecule ([1]; quaternary: 0.25% 207 (101+103E5) + 0.1% 320): ~100%
SMILES: CC(=O)CC(c1ccccc1)c1c(O)c2ccccc2oc1=O (stereo not shown) [Warfarin]
